US20130244929A1 (priority 2010, published 2013)
Like-named read-outs stand apart in the source and are kept apart here.

What was measured:
SpsB = target: T1, SpsB (Staphylococcus aureus, UniProt P0A070); test: Inhibition of SpsB enzyme activity (fluorescence-based assay, bacterial membrane fraction); assay type: biochemical
T1 construct: using a bacterial membrane fraction as a source of SpsB; from tissue
T1 sequence (P0A070 1-191): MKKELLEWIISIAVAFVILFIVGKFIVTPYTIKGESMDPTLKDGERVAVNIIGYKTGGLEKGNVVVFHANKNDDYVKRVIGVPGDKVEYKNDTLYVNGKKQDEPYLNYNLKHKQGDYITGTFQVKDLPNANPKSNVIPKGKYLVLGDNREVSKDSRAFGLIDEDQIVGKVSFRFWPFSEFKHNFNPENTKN
Experimental: Signal peptidase enzyme activity was measured in a fluorescence-based assay using a bacterial membrane fraction as a source of SpsB (See Bruton et al., 2003, Eur J Med Chem 38:351-356). The SpsB substrate is a synthetic lipopeptide, decanoyl-K(DABCYL)-TPTAKA↓ASKKD-D(EDANS)—NH2 (prepared by JPT Peptide Technologies, Berlin, Germany). Assays were performed with 20 μM peptide substrate (Km≈5 μM) and reactions were initiated with enzyme addition (final protein concentration of 0.6 mg/mL). SpsB mediated cleavage of the peptide substrate was detected as an increase in fluorescence (excitation 340 nm/emission 460 nm).

[1] = test system: MB 5393 (COL), a methicillin-resistant S. aureus strain; test: Determination of minimum and synergistic inhibitory concentration; assay type: cell-based; settings: for SIC: presence of imipenem (4 μg/mL); for MIC: Staphylococcus aureus
Experimental: MB 5393 (COL), a methicillin-resistant S. aureus strain, was inoculated into Trypticase Soy Broth (TSB, BBL) and grown in a humidified incubator for 18 hours with rotary shaking at 220 rpm and kept on ice until used.
A quantity of imipenem (Merck Chemical Collection) was weighed out and dissolved into sterile 10 mM MOPS buffer at pH 7. This solution was diluted to 1600 μg/mL, 200 μg/mL, and 25 μg/mL and filter-sterilized through a 0.45 μm filter. From these solutions, seven 1:2 serial dilutions were prepared using sterile 10 mM MOPS buffer at pH 7. The final concentration ranges tested were 128 to 2 μg/mL, 16 to […], and 2 to 0.03 μg/mL. The solutions were kept refrigerated until used.
Test compounds (EXAMPLES 1-67) were prepared in sterile water or DMSO at a concentration of 3.2 mg/mL. From this solution, 11 serial 1:2 dilutions were prepared using sterile water. The final concentration range tested was 64 to 0.0313 μg/mL. The solutions were kept refrigerated until used.
Two-fold serial dilutions of test compounds were tested in the presence and absence of subinhibitory concentrations of imipenem (4 μg/mL) in 96-well U bottom microliter dishes in microbiological growth media. The plates were inoculated with bacterial cells to a final concentration of ˜5×10^5 CFU/mL. Test plates were incubated stationery at 37° C. for 22-24 hours.
After 22 hours of incubation, the Minimum inhibitory concentrations (MICs) were determined, defined as the lowest concentration of antibiotic that prevented all visible growth in the absence of imipenem. Synergistic inhibitory concentrations (SICs) were determined, defined as the lowest concentration of antibiotic that prevented all visible growth in the presence of imipenen.

Structure (SMILES)	IC50 (SpsB)	SIC ([1]; MRSA COL, 22 hours)	MIC ([1]; MRSA, 22 h)	MIC ([1]; MRSA COL, absence of imipenem, 22 hours, read-out: MIC)
CCCCCCCCCc1ccc(-c2ccc(C(=O)NCCC(=O)N[C@@H](CCCCN)C(=O)N(C)[C@@H]3C(=O)N[C@@H](C)C(=O)N[C@H](C(=O)O)Cc4ccc(O)c(c4)-c4cc3ccc4O)nc2)cc1 [EXAMPLE 32]	< 10 nM	G (G: SIC <0.0625)	< 1 µg/mL	–
CCCCCCCCCCc1ccc2cc(C(=O)NCCC(=O)N[C@@H](CCCCNC(C)=O)C(=O)N(C)[C@@H]3C(=O)N[C@@H](C)C(=O)N[C@H](C(=O)O)Cc4ccc(O)c(c4)-c4cc3ccc4O)ccc2c1 [EXAMPLE 33]	< 10 nM	G (G: SIC <0.0625)	–	> 8 µg/mL
CCCCCCCCCc1ccc(-c2ncc(C(=O)NCCC(=O)N[C@@H](CCCCN(C)C)C(=O)N(C)[C@@H]3C(=O)N[C@@H](C)C(=O)N[C@H](C(=O)O)Cc4ccc(O)c(c4)-c4cc3ccc4O)cn2)cc1 [EXAMPLE 34]	< 10 nM	G (G: SIC <0.0625)	< 1 µg/mL	–
CCCCCc1ccc(-c2ccc(C(=O)NCCC(=O)N[C@@H](CCCCN)C(=O)N(C)[C@@H]3C(=O)N[C@@H](C)C(=O)N[C@H](C(=O)O)Cc4ccc(O)c(c4)-c4cc3ccc4O)cc2)cc1 [EXAMPLE 35]	< 10 nM	G (G: SIC <0.0625)	< 1 µg/mL	–
CCCCCCCOCc1ccc(-c2ccc(C(=O)NCCC(=O)N[C@@H](CCCCN)C(=O)N(C)[C@@H]3C(=O)N[C@@H](C)C(=O)N[C@H](C(=O)O)Cc4ccc(O)c(c4)-c4cc3ccc4O)cc2)cc1 [EXAMPLE 36]	< 10 nM	G (G: SIC <0.0625)	< 1 µg/mL	–
CC(C)CCCCCCc1ccc(-c2ccc(C(=O)NCCC(=O)N[C@@H](CCCCN)C(=O)N(C)[C@@H]3C(=O)N[C@@H](C)C(=O)N[C@H](C(=O)O)Cc4ccc(O)c(c4)-c4cc3ccc4O)cc2)cc1 [EXAMPLE 37]	< 10 nM	G (G: SIC <0.0625)	< 1 µg/mL	–
C[C@@H]1NC(=O)[C@@H](N(C)C(=O)[C@H](CCCCN)NC(=O)CCNC(=O)c2ccc(CCCCCCCc3ccccc3)cc2)c2ccc(O)c(c2)-c2cc(ccc2O)C[C@@H](C(=O)O)NC1=O [EXAMPLE 38]	< 10 nM	G (G: SIC <0.0625)	< 1 µg/mL	–
CCCCCCCCCc1ccc(-c2ccc(C(=O)NCCC(=O)N[C@@H](CCCCN)C(=O)N(C)[C@@H]3C(=O)N[C@@H](C)C(=O)N[C@H](C(=O)O)Cc4ccc(O)c(c4)-c4cc3ccc4O)c(O)c2)cc1 [EXAMPLE 39]	< 10 nM	G (G: SIC <0.0625)	< 1 µg/mL	–
CCCCCCCCCc1ccc(-c2ccc(C(=O)NCCC(=O)N3C[C@H](N)C[C@H]3C(=O)N(C)[C@@H]3C(=O)N[C@@H](C)C(=O)N[C@H](C(=O)O)Cc4ccc(O)c(c4)-c4cc3ccc4O)cc2)cc1 [EXAMPLE 40]	< 10 nM	G (G: SIC <0.0625)	< 1 µg/mL	–
CCCCCCCCCc1ccc(-c2nc(C(=O)NCCC(=O)N[C@@H](CCCCN)C(=O)N(C)[C@@H]3C(=O)N[C@@H](C)C(=O)N[C@H](C(=O)O)Cc4ccc(O)c(c4)-c4cc3ccc4O)cs2)cc1 [EXAMPLE 41]	< 10 nM	G (G: SIC <0.0625)	< 1 µg/mL	–
C[C@@H]1NC(=O)[C@@H](N(C)C(=O)[C@H](CCCCN)NC(=O)CCNC(=O)c2ccc(-c3ccc(C(C)(C)C)cc3)cc2)c2ccc(O)c(c2)-c2cc(ccc2O)C[C@@H](C(=O)O)NC1=O [EXAMPLE 42]	< 10 nM	H (H: SIC 0.062-1)	< 1 µg/mL	–
CCCCCCCCCc1ccc(-c2ccc(C(=O)NCCC(=O)N[C@@H](CCCCN)C(=O)N(C)[C@@H]3C(=O)N[C@@H](C)C(=O)N[C@H](C(=O)O)Cc4ccc(O)c(c4)-c4cc3ccc4O)c(C)c2)cc1 [EXAMPLE 43]	< 10 nM	G (G: SIC <0.0625)	< 1 µg/mL	–
CCCCCCCCCc1ccc(-c2ccc(C(=O)NCCC(=O)N3C[C@@H](N)C[C@H]3C(=O)N(C)[C@@H]3C(=O)N[C@@H](C)C(=O)N[C@H](C(=O)O)Cc4ccc(O)c(c4)-c4cc3ccc4O)cc2)cc1 [EXAMPLE 44]	< 10 nM	G (G: SIC <0.0625)	< 1 µg/mL	–
